# Laboratory results from PMC7416749 (Journal of genetics and genomics = Yi chuan xue bao, 2020).
# Tests used:
# [1] = system: dP75 IBD-containing C-terminus region (residues 209–445); assay: Isothermal titration calorimetry; type: binding, Drosophila; conditions: ITC, 20 °C, mutant peptides 984–1004 compared with wild type
# [2] = target: dP75 IBD-containing C-terminus region (residues 209–445) (Drosophila melanogaster); assay: ITC
Molecule,effect of substitution in Jil-1 peptide 984–1004 on binding to dP75 (in words) [1],Kd [2] [µM]
"G991V: Jil-1 peptide 984–1004 with G991V substitution (EVQADFYVFDENAPPLPLPEE; UniProt Q9V3I5 984-1004, looked up, variant G991V)",dramatically reduced the binding,–
"F992A: Jil-1 peptide 984–1004 with F992A substitution (EVQADFYGADENAPPLPLPEE; UniProt Q9V3I5 984-1004, looked up, variant F992A)",dramatically reduced the binding,–
Jil-1 peptide from the proximal site (…; residues 984–1004),–,0.8
"F989A: Jil-1 peptide 984–1004 with F989A substitution (EVQADAYGFDENAPPLPLPEE; UniProt Q9V3I5 984-1004, looked up, variant F989A)",dramatically reduced the binding,–
KREENFYGFSK [Jil-1 peptide at the distal site (…; residues 1102–1112)],–,120
